Converted amounts (≈) assume the structure as drawn.
Columns and labels:
[1] = system: E. coli; assay: AST without DL (division feature only, cell counting from the videos); format: cell-based, Escherichia coli (ATCC 43888); settings: for MIC: Escherichia coli
Procedure: To further validate the DLVM-AST method, we counted the total number of bacteria cells (Ntotal) from the videos (as shown in FIG. 9), and plotted Ntotal (mean±std) vs. time for PMB at various concentrations (as shown in FIG. 11C).
Growth and preparation of E. coli. Frozen E. coli strains were thawed, and 50 μL of which were cultured in 5 mL of Luria-Bertani (LB) medium (Per liter: 10 g peptone 140, 5 g yeast extract, and 5 g sodium chloride) at 37° C. and 150 rpm for 16 hours. Saturated cultures in the volume of 20 μL were diluted into 5 mL of fresh LB medium, and growth continued at 37° C. with 150 rpm for 1 hour to attain a logarithmic phase of growth. Bacterial cells were collected by centrifugation at 450 g for 5 min and suspended in urine to a concentration of 2×10^7 cells/mL^36. This concentration was determined by measuring the extinction coefficients for E. coli from the Optical Density (OD600) reading taken with a spectrophototometer (NanoDrop™ 2000/2000c Spectrophotometers, Thermo Scientific). The calibration factor for bacterial cell cultures estimation was 8×10^8 cells/mL per OD600 unit. Before use, the bacteria-spiked urine samples were filtered using a 5 μm syringe filter (EMD Millipore) to remove large particles.
AST with video microscopy. The microfluidic chip was placed on an inverted microscope (Olympus IX-81) with a 40× phase contrast objective lens and imaged with a CCD camera (Pike-032B, Allied Vision Technologies, Newburyport, Mass.). A 200-μL bacterial suspension (2×10^7 cells/mL) was mixed with an equal volume of antibiotic solution for each antibiotic concentration or an equal volume of water as a control experiment. These mixed solutions were injected into different microfluidic channels simultaneously. After the microfluidic channels were fulfilled with these mixed solutions, two microfluidic valves of each detection channel were closed simultaneously to generate a stable microenvironment. Videos of the bacterial cells were recorded at 100 frames per second (fps) immediately (0 min) and after every 30 min. Each video lasted for 30 seconds. The raw images were batch-converted to 16-bit tiff format using a Matlab program and pre-processed to minimize background artifacts before being processed with the DL model. To include enough cells for reliable results, we integrated bacterial cells from three videos recorded from different experiments. Each experiment was repeated independently for three times.

[2] = system: E. coli; assay: Deep learning video microscopy-based antimicrobial susceptibility testing (DLVM-AST); format: cell-based, Escherichia coli (ATCC 43888); settings: for MIC: Escherichia coli
[3] = system: E. coli; assay: microbe, parasite or virus in culture; format: cell-based, Escherichia coli (ATCC 43888); settings: broth macrodilution, 37° C., triplicate; for MIC: Escherichia coli
Procedure: AST with broth macrodilution (BMD) method. For comparison, AST was also performed by the BMD method (CLSI gold standard^35). The adjusted inoculum E. coli suspension is diluted in Cation-adjusted Mueller Hinton Broth (CAMHB, Sigma-Aldrich) and the concentration of E. coli cell cultures are adjusted to 1×10^6 cells/mL based on UV-Vis spectrophotometer (NanoDrop 2000, Thermo Fisher) readings at OD600. […] After inoculation, each tube contains approximately 5×10^5 cells/mL. […] This test was performed in triplicate.

[4] = system: E. coli; assay: Phenotypic features (motion, morphology) in recorded bacteria videos in presence of antibiotics; format: cell-based, Escherichia coli; settings: 3 hours
Procedure: Referring now simultaneously to FIG. 8A-FIG. 8C, phenotypic features in the recorded bacteria videos in the presence and absence of antibiotics are shown. […] Concentrations of PMB and aztreonam are 8 μg/mL and 0.5 μg/mL, respectively.
In principle, the raw bacterial videos could be used as inputs for a DL model, but the computational expense is impractical. In fact, few DL applications could use videos as input data directly even with high performance super-computers.^30-32 To overcome this difficulty, a method to compress the raw videos into static images without losing key phenotypic features was developed as described further below. This approach imitates human vision, which pre-processes raw images in the vision system to reduce complexity before passing them to the brain. The key phenotypic features in the video include cell division, motion, and morphology. […] Cell motion and morphology may also change when exposing the cell to antibiotics, thus serving as additional phenotypic features for AST. […]
AST with video microscopy. […] Videos of the bacterial cells were recorded at 100 frames per second (fps) immediately (0 min) and after every 30 min. […] To include enough cells for reliable results, we integrated bacterial cells from three videos recorded from different experiments. […]

[5] = system: E. coli O157 model strain; assay: Susceptibility test with 40× optical microscope and imaging-processing algorithm tracking motion and growth; format: cell-based; settings: @30 mins; concentrated bacterial samples
Source text: The inventors here have tested the susceptibility of E. coli O157 model strain to polymysin B (PMB, an antibiotic) using a 40× optical microscope. The individual bacterial cells 12 were identified, and their motions and growth were tracked using an imaging-processing algorithm. Inhibition curves were derived from the tracking data as shown below with respect to FIG. 4B and FIG. 4C. […] However, the experiment used concentrated bacterial samples, because the microscope has a small viewing size.

[6] = division feature only, triplicate
[7] = E. coli spiked in urine, triplicate

O=C(O)c1cn(C2CC2)c2cc(N3CCNCC3)c(F)cc2c1=O [Ciprofloxacin, ciprofloxacin]
MIC [1, 6]: 0.015 to 0.03 µg/mL (≈ 0.0453 to 0.0905 µM)

CC1(C)S[C@@H]2[C@H](NC(=O)[C@H](N)c3ccccc3)C(=O)N2[C@H]1C(=O)O [Ampicillin, ampicillin]
MIC [2, 7]: 2 µg/mL (≈ 5.72 µM) | MIC [3]: 2 µg/mL (≈ 5.72 µM) | MIC [1, 6]: 2 µg/mL (≈ 5.72 µM)

[H]/N=C(/N)N[C@H]1[C@H](O)[C@@H](O)[C@H](O[C@@H]2O[C@@H](C)[C@](O)(C=O)[C@H]2O[C@@H]2O[C@@H](CO)[C@H](O)[C@@H](O)[C@@H]2NC)[C@@H](N/C(N)=N\[H])[C@@H]1O [Streptomycin, streptomycin]
MIC [2, 7]: 4 µg/mL (≈ 6.88 µM) | MIC [3]: 4 µg/mL (≈ 6.88 µM) | MIC [1, 6]: 4 µg/mL (≈ 6.88 µM)

polymyxin B
MIC, DLVM-AST [2, 7]: 2 µg/mL | MIC (concentration at which 90% of the bacterial cells are inhibited) ([2]; obtained 30 minutes after antibiotic treatment): 2 µg/mL | MIC, BMD [3]: 2 µg/mL | MIC from Ntotal vs. antibiotic concentration ([1]; at 180 minutes, cell counting): ~2 µg/mL | MIC, AST Without DL [1, 6]: 1 to 2 µg/mL | effect on bacterial motion ([4]; PMB 8 μg/mL): decreased bacterial motion | MIC [5]: 2 µg/mL

C[C@H]1[C@H](NC(=O)/C(=N\OC(C)(C)C(=O)O)c2csc(N)n2)C(=O)N1S(=O)(=O)O [Aztreonam, aztreonam]
MIC [2, 7]: 0.12 µg/mL (≈ 0.276 µM) | MIC [3]: 0.12 µg/mL (≈ 0.276 µM) | MIC [1, 6]: 0.12 µg/mL (≈ 0.276 µM) | effect on bacterial morphology ([4]; aztreonam 0.5 μg/mL): caused the bacterial cells to elongate

From patent publication US11834696B2, “Antimicrobial susceptibility testing with large-volume light scattering imaging and deep learning video microscopy” (Arizona Board of Regents on behalf of Arizona State …, priority 2017, dated 2023)
